Data taken from patent US11633551B2, “Gaseous nitric oxide delivery system and methods of use” (Hansen Pharmaceutical, LLC, priority 2014, dated 2023).
Where “and” joins values, the source holds several entries; their conditions need not be identical. Identical values can stand only once.

What was measured:
Assay type in all cases: cell-based
cells = experiment: MTT assay of cell viability after gNO administration; details: pressurized gNO at about 0.15 ATM (2.2 psi) for about 105 minutes
Procedure: Additionally, MTT assays were performed to assess cell viability after gNO administration. MTT assays are colorimetric-based assays used to assess cell viability as a function of color variation. As illustrated below in Table 2, cell viability after the administration of pressurized gNO at about 0.15 ATM (2.2 psi) for about 105 minutes varied from about 40%-50%.

S. aureus = experiment: Colony counts after pressurized gNO, 24 hours infection, Franz cell (3-Ring) or Leg Device; details: 1% gNO after 24 hours of infection
Procedure: Experiments were also conducted to determine the infection-reducing capability of gNO administration at various pressures below 1.0 ATM (14.695 psi) (independent of and in addition to the pressure applied by the external environment) using both a Franz cell tissue culture device (i.e., 3-Ring) and a portable gNO deliver device (i.e., Leg Device). The results of one set of experiments are illustrated below in Table 1. gNO was administered at a 1% concentration after 24 hours of infection with S. aureus. Flow Rates (cm^3/min or cc) varied from about 100 to about 1500, Purge Flow (liters/min or LPM) varied from about 0.1 to about 1.5, and gNO Exposure Time varied between about 45 minutes to about 105 minutes among the different treatment groups and controls. Colony counts (log CFU) were performed at various dilutions, which are represented in the last eight columns labeled 0, 1×10^−1 through 1×10^−7 (“0” indicates no dilution).

[1] = system: Acinetobacter baumannii (ATCC #BAA-747); experiment: Skin sample infection assay, 3 hours infection, bioburden after gNO; details: 1% gNO at 1 ATM (14.695 psi) for 90 minutes, flow rate 0.1 liters/minute; skin samples infected for 3 hours; FIG. 4
Procedure: (§1) FIG. 4 is a graph illustrating the effects of NO treatment on bioburden using an infection assay, after three hours of infection, according to an embodiment of the present disclosure. Skin samples infected for 3 hours with Staphylococcus, MRSA, Acinetobacter or Pseudomonas and subsequently exposed to 1% gNO at 1 ATM (14.695 psi) for 90 minutes at a flow rate of 0.1 liters/minute. Staphylococcus aureus, subspecies aureus Rosenbach (ATCC #12600); Staphylococcus aureus, subspecies aureus Rosenbach (ATCC #33591), methicillin-resistant strain of Staphylococcus aureus, phage type 92; Acinetobacter baumannii (ATCC #BAA-747); and Pseudomonas aeruginosa (ATTC #BAA-47). Control=infected, untreated tissue. Three sets of triplicates were performed per experiment.

[2] = system: Staphylococcus aureus, subspecies aureus Rosenbach (ATCC #12600); experiment: as above; details: 1% gNO at 1 ATM (14.695 psi) for 90 minutes, flow rate 0.1 liters/minute; skin samples infected for 3 hours; FIG. 4
Procedure: as §1

[3] = system: MRSA, methicillin-resistant strain of Staphylococcus aureus (ATCC #33591); experiment: as above; details: 1% gNO at 1 ATM (14.695 psi) for 90 minutes, flow rate 0.1 liters/minute; skin samples infected for 3 hours; FIG. 4
Procedure: as §1

[4] = system: Pseudomonas aeruginosa (ATTC #BAA-47); experiment: as above; details: 1% gNO at 1 ATM (14.695 psi) for 90 minutes, flow rate 0.1 liters/minute; skin samples infected for 3 hours; FIG. 4
Procedure: as §1

[5] = Trial 0.15 ATM, 3-Ring, purge flow 0.1 LPM, flow rate 100 cc, 0.15 ATM, 105 min
[6] = Trial 0.25 ATM, 3-Ring, purge flow 0.1 LPM, flow rate 100 cc, 0.25 ATM, 90 min
[7] = Trial 0.5 ATM, 3-Ring, purge flow 0.1 LPM, flow rate 100 cc, 0.5 ATM, 90 min
[8] = Trial 0.5 ATM, Leg Device, purge flow 1.0 LPM, flow rate 500 cc, 0.5 ATM, 45 min
[9] = Trial 9 attempt, 3-Ring, purge flow 0.1 LPM, flow rate 100 cc, 0.25 ATM, 90 min
[10] = Trial Calf, Leg Device, purge flow 0.1 LPM, flow rate 100 cc, 0.5 ATM, 90 min
[11] = Trial Heel, Leg Device, purge flow 0.1 LPM, flow rate 100 cc, 0.5 ATM, 90 min
[12] = Trial Leg 1, Leg Device, purge flow 1.5 LPM, flow rate 1500 cc, 1 ATM, 90 min
[13] = Trial Leg 2, Leg Device, purge flow 1.5 LPM, flow rate 100 cc, 0.5 ATM, 90 min
[14] = Trial Leg purge, Leg Device, purge flow 0.5 LPM, flow rate 100 cc, 0.25 ATM, 90 min
[15] = Trial Toe, Leg Device, purge flow 0.1 LPM, flow rate 100 cc, 0.5 ATM, 90 min
[16] = Trial d Pressure, Leg Device, purge flow 0.1 LPM, flow rate 100 cc, 0.5 ATM, 45 min

[N]=O [gNO, Nitric Oxide]
40%-50%: Cell viability (cells; summary of Table 2)
nearly completely eradicated: Reduction of bioburden [1] | Reduction of bioburden [3] | Reduction of bioburden [4]
44.7% and 44.2% and 39.9%: % Viability (cells; control = 100)
0 log CFU: Colony counts, 1 × 10−5 dilution (S. aureus; [5]) | Colony counts, 1 × 10−6 dilution (S. aureus; [5]) | Colony counts, 1 × 10−7 dilution (S. aureus; [5]) | Colony counts, 1 × 10−5 dilution (S. aureus; [6]) | Colony counts, 1 × 10−6 dilution (S. aureus; [6]) | Colony counts, 1 × 10−7 dilution (S. aureus; [6]) | Colony counts, 1 × 10−2 dilution (S. aureus; [7]) | Colony counts, 1 × 10−3 dilution (S. aureus; [7]) | Colony counts, 1 × 10−4 dilution (S. aureus; [7]) | Colony counts, 1 × 10−5 dilution (S. aureus; [7]) | Colony counts, 1 × 10−6 dilution (S. aureus; [7]) | Colony counts, 1 × 10−7 dilution (S. aureus; [7]) | Colony counts, 0 (no dilution) (S. aureus; [8]) | Colony counts, 1 × 10−1 dilution (S. aureus; [8]) | Colony counts, 1 × 10−2 dilution (S. aureus; [8]) | Colony counts, 1 × 10−3 dilution (S. aureus; [8]) | Colony counts, 1 × 10−4 dilution (S. aureus; [8]) | Colony counts, 1 × 10−5 dilution (S. aureus; [8]) | Colony counts, 1 × 10−6 dilution (S. aureus; [8]) | Colony counts, 1 × 10−7 dilution (S. aureus; [8]) | Colony counts, 0 (no dilution) (S. aureus; [10]) | Colony counts, 1 × 10−1 dilution (S. aureus; [10]) | Colony counts, 1 × 10−2 dilution (S. aureus; [10]) | Colony counts, 1 × 10−3 dilution (S. aureus; [10]) | Colony counts, 1 × 10−4 dilution (S. aureus; [10]) | Colony counts, 1 × 10−5 dilution (S. aureus; [10]) | Colony counts, 1 × 10−6 dilution (S. aureus; [10]) | Colony counts, 1 × 10−7 dilution (S. aureus; [10]) | Colony counts, 0 (no dilution) (S. aureus; [11]) | Colony counts, 1 × 10−1 dilution (S. aureus; [11]) | Colony counts, 1 × 10−2 dilution (S. aureus; [11]) | Colony counts, 1 × 10−3 dilution (S. aureus; [11]) | Colony counts, 1 × 10−4 dilution (S. aureus; [11]) | Colony counts, 1 × 10−5 dilution (S. aureus; [11]) | Colony counts, 1 × 10−6 dilution (S. aureus; [11]) | Colony counts, 1 × 10−7 dilution (S. aureus; [11]) | Colony counts, 0 (no dilution) (S. aureus; [12]) | Colony counts, 1 × 10−1 dilution (S. aureus; [12]) | Colony counts, 1 × 10−2 dilution (S. aureus; [12]) | Colony counts, 1 × 10−3 dilution (S. aureus; [12]) | Colony counts, 1 × 10−4 dilution (S. aureus; [12]) | Colony counts, 1 × 10−5 dilution (S. aureus; [12]) | Colony counts, 1 × 10−6 dilution (S. aureus; [12]) | Colony counts, 1 × 10−7 dilution (S. aureus; [12]) | Colony counts, 0 (no dilution) (S. aureus; [13]) | Colony counts, 1 × 10−1 dilution (S. aureus; [13]) | Colony counts, 1 × 10−2 dilution (S. aureus; [13]) | Colony counts, 1 × 10−3 dilution (S. aureus; [13]) | Colony counts, 1 × 10−4 dilution (S. aureus; [13]) | Colony counts, 1 × 10−5 dilution (S. aureus; [13]) | Colony counts, 1 × 10−6 dilution (S. aureus; [13]) | Colony counts, 1 × 10−7 dilution (S. aureus; [13]) | Colony counts, 0 (no dilution) (S. aureus; [14]) | Colony counts, 1 × 10−1 dilution (S. aureus; [14]) | Colony counts, 1 × 10−2 dilution (S. aureus; [14]) | Colony counts, 1 × 10−3 dilution (S. aureus; [14]) | Colony counts, 1 × 10−4 dilution (S. aureus; [14]) | Colony counts, 0 (no dilution) (S. aureus; [15]) | Colony counts, 1 × 10−1 dilution (S. aureus; [15]) | Colony counts, 1 × 10−2 dilution (S. aureus; [15]) | Colony counts, 1 × 10−3 dilution (S. aureus; [15]) | Colony counts, 1 × 10−4 dilution (S. aureus; [15]) | Colony counts, 1 × 10−5 dilution (S. aureus; [15]) | Colony counts, 1 × 10−6 dilution (S. aureus; [15]) | Colony counts, 1 × 10−7 dilution (S. aureus; [15])
TNTC: Colony counts, 0 (no dilution) (S. aureus; [9]) | Colony counts, 1 × 10−1 dilution (S. aureus; [9]) | Colony counts, 1 × 10−2 dilution (S. aureus; [9]) | Colony counts, 0 (no dilution) (S. aureus; [16]) | Colony counts, 1 × 10−1 dilution (S. aureus; [16]) | Colony counts, 1 × 10−2 dilution (S. aureus; [16]) | Colony counts, 1 × 10−3 dilution (S. aureus; [16])
total kill: Reduction of bioburden (summary of Table 1) (S. aureus; pressures as low as about 0.15 ATM (2.2 psi), exposure times of about 105 minutes)
5 fold: Reduction of bioburden [2]
